Assay results taken from paper PMC7859449, “Short Chain (≤C4) Esterification Increases Bioavailability of Rosmarinic Acid and Its Potency to Inhibit Vascular Smooth Muscle Cell Proliferation” (Frontiers in Pharmacology, 2021).
Where “and” joins values, the source holds several entries; their conditions need not be identical. Equal values may be shown once. Read-outs that look alike come from different tables or passages of the source. Each block holds one compound with its values, some of them ahead of it.

Assays:
[1] = tested on: PDGF-BB-induced VSMC proliferation; experiment: Proliferation assay (resazurin conversion) in PDGF-BB-stimulated VSMC; format: cell-based, rat; conditions: for activity at 10 µM / IC50: Rattus norvegicus, resazurin; for activity at 10 µM: VSMC, 10 μmol/L, PDGF-BB 20 ng/mL 48 h, read-out: VSMC proliferation at 10 μmol/L (relative to vehicle control, RU); for IC50: PDGF-BB-induced VSMC proliferation
Protocol: Primary VSMC were cultivated in DMEM-F12 (1:1) supplemented with 20% fetal bovine serum, 30 μg/ml gentamicin, and 15 ng/mL amphotericin B at 37°C in an incubator with 5% CO2 flow in a humidified atmosphere. Passages 4 to 12 were used in experiments.
Resazurin conversion to fluorescent resorufin was used as a measure for cell proliferation. Primary VSMC were seeded at 5 × 10^3 cells/well in a 96-well plate to grow for the next 24 h. Cells were then synchronized into G0 phase by serum deprivation for 24 h, pretreated with compounds for 30 min and stimulated with 20 ng/mL PDGF-BB for the next 48 h. After one washing step, cells were incubated in starvation medium containing 10 μg/mL resazurin for 2 h, and changes in fluorescence were monitored in a Tecan Spark (Tecan Group, Männedorf, Switzerland) plate reader at an excitation wavelength of 535 nm and an emission wavelength of 580 nm.

[2] = design: method as in earlier work; conditions: rats and humans; ref Nakazawa and Ohsawa, 1998; Baba et al., 2005; Wang et al., 2017; cited from earlier work
[3] = design: method as in Nakazawa and Ohsawa, 1998; conditions: rat; ref Nakazawa and Ohsawa, 1998; cited from earlier work
[4] = design: method as in Baba et al., 2005; conditions: human; ref Baba et al., 2005; cited from earlier work
[5] = Stability of RA QC samples under different storage conditions; format: physicochemical, rat
cultured VSMC = experiment: Intracellular bioavailability of RA esters (LC-MS/MS of cytoplasmic fractions); format: in vitro ADME, rat; conditions: for intracellular concentration as share of applied concentration: 10 μmol/L applied; for intracellular content normalized to protein: at 8.5 h; for intracellularly accumulated concentration: after 0.5 h exposure to 10 μmol/L; for intracellular level relative to those of RAME and RAET: exposure to 10 μmol/L
Protocol: After cells had been lysed and membranes had been removed by centrifugation, as described in the previous section, half of the cytoplasmic fractions were collected in 1.5 mL eppendorf tubes, diluted with methanol in 1:3 ratios and centrifuged at 5,600 × g for 20 min to remove proteins. Supernatants were then subjected to LC-MS/MS analysis to determine the cytoplasmic concentrations of RA esters at each treatment time point up to 16 h PDGF-BB stimulation. Cell culture media were also collected prior to the lysis procedure, diluted with methanol in a manner described above and subjected to LC-MS/MS. […] Intracellular concentrations of RA esters were normalized to protein concentrations at each treatment time point. Details of the quantification method are shown in the Supplementary Material.
FIGURE 6 Esters of rosmarinic acid with longer alkyl groups show increased intracellular bioavailability.

VSMC = experiment: Cytotoxicity assay (LDH release) in PDGF-induced VSMC; format: cell-based; conditions: PDGF-BB 24 h
Protocol: Increased lactate dehydrogenase (LDH) release is an indicator for the loss of cell membrane integrity, associated with cell death. Determination of LDH release in response to increasing concentrations of RAME (7), RAET (8), RABU (9), RAOCT (10) and RADOD (11) was performed as previously described ([Liu et al., 2018]).
FIGURE 4 Cytotoxicity of RA esters in PDGF-induced VSMC. VSMC were pretreated with 0.1% DMSO or increasing concentrations of RA esters as indicated for 30 min, stimulated with 20 ng/mL PDGF-BB for 24 h, and released LDH was determined. Digitonin (80 μmol/L) was used as a positive control. Graphs show means ± SD out of 3 (RAME, RAET and RABU) and 4 (RAOCT and RADOD) independent experiments (n.s., not significant, p > 0.05, **p < 0.01, ***p < 0.001, ANOVA/Bonferroni, “vehicle with PDGF-BB” vs. “RA ester with PDGF-BB”).

PDGF-BB-induced VSMC = experiment: Cell cycle analysis (PI staining, flow cytometry); format: cell-based, rat; conditions: 3 μmol/L, PDGF-BB 16 h
Protocol: Flow cytometry was used to analyze cell cycle progression. VSMC were seeded at a density of 10^5 cells per well in 12-well plates. After rendered quiescent, cells were treated with increasing concentrations of RAME (7), RAET (8), RABU (9) and RAOCT (10) or with 0.1% DMSO for 30 min followed by stimulation with 20 ng/mL PDGF-BB for 16 h. Cells were collected by trypsinization, washed and resuspended in a hypotonic propidium iodide (PI) solution containing 0.1% (v/v) Triton X-100, 0.1% (w/v) sodium citrate, and 50 μg/mL PI. PI-stained nuclei were analyzed on a FACSCalibur (BD Biosciences, Vienna, Austria) flow cytometer at an excitation wavelength of 488 nm and an emission wavelength of 585 nm.
FIGURE 5 Ethyl, butyl and octyl esters of rosmarinic acid (RA) inhibit the proliferation of VSMC by exerting the same mechanism of action as the methyl ester (A) Quiescent VSMC were treated with 0.1% DMSO or increasing concentrations of RA esters as indicated for 30 min, stimulated with 20 ng/mL PDGF-BB for 16 h and the cell cycle progression was analyzed using PI staining and flow cytometry. […]

CDK4 = tested on: CDK4; design: method as in Liu et al., 2018; conditions: ref Liu et al., 2018; cited from earlier work
CDK2 = tested on: CDK2; design: method as in Liu et al., 2018; conditions: CDK2 kinase activity in vitro; ref Liu et al., 2018; cited from earlier work
[6] = Long-term stability (15 d at -20°C), nominal 2 ng/mL
[7] = Long-term stability (15 d at -20°C), nominal 800 ng/mL
[8] = Post-preparative stability (8 h at 4°C), nominal 2 ng/mL
[9] = Post-preparative stability (8 h at 4°C), nominal 800 ng/mL
[10] = Short-term stability (8 h at room temperature), nominal 2 ng/mL
[11] = Short-term stability (8 h at room temperature), nominal 800 ng/mL
[12] = Stock Solution Stability (8 h at room temperature), nominal 2 ng/mL
[13] = Stock Solution Stability (8 h at room temperature), nominal 800 ng/mL

Structure (SMILES): O=C(O)/C=C/c1cccc(O)c1 [Compound 3, m-coumaric acid, reference compound]
activity at 10 µM [1]: 107 ± 15.2%

Structure (SMILES): COc1cc(/C=C/C(=O)O)ccc1O [Compound 4, ferulic acid, reference compound]
activity at 10 µM [1]: 107 ± 17.3%

Structure (SMILES): O=C(O)CCc1cccc(O)c1 [Compound 5, m-hydroxyphenylpropionic acid, reference compound]
activity at 10 µM [1]: 120 ± 27.8%

Measured Concentration ([5]; Freeze-thaw stability (three cycles), nominal 2 ng/mL): 2.14 ± 0.09 ng/mL
Measured Concentration ([5]; Freeze-thaw stability (three cycles), nominal 800 ng/mL): 786.67 ± 50.06 ng/mL
Measured Concentration [5, 6]: 2.18 ± 0.09 ng/mL
RE [5, 6]: 8.83%
Measured Concentration [5, 7]: 770.67 ± 50.01 ng/mL
RE [5, 7]: -3.67%
Measured Concentration [5, 8]: 1.88 ± 0.13 ng/mL
RE [5, 8]: -5.83%
Measured Concentration [5, 9]: 737.00 ± 8.00 ng/mL
RE [5, 9]: -7.88%
Measured Concentration [5, 10]: 1.79 ± 0.07 ng/mL
RE [5, 10]: -10.67%
Measured Concentration [5, 11]: 762.33 ± 27.75 ng/mL
RE [5, 11]: -4.71%
Measured Concentration [5, 12]: 1.90 ± 0.08 ng/mL
RE [5, 12]: -4.83%
Measured Concentration [5, 13]: 782.33 ± 27.43 ng/mL
RE [5, 13]: -2.21%
Structure (SMILES): O=C(/C=C/c1ccc(O)c(O)c1)O[C@H](Cc1ccc(O)c(O)c1)C(=O)O [RA (6), Rosmarinic acid]
amount of orally ingested RA absorbed [2]: up to 1.69%
cumulative proportions of all RA metabolites detected in urine (of the administered dose) [3]: about 32%
cumulative proportions of all RA metabolites detected in urine (of the administered dose) [4]: ~6%
activity at 10 µM [1]: 78.1 ± 16.7%

Structure (SMILES): CCCCOC(=O)[C@@H](Cc1ccc(O)c(O)c1)OC(=O)/C=C/c1ccc(O)c(O)c1 [RABU (9), rosmarinic acid butyl ester]
intracellular concentration as share of applied concentration (cultured VSMC): 60%
intracellular content normalized to protein (cultured VSMC; 10 μmol/L): around 2 pmol per µg of protein
intracellularly accumulated concentration (cultured VSMC): about 6 μmol/L
intracellular level relative to those of RAME and RAET (cultured VSMC): ~3 fold
cell death (LDH release) (VSMC; up to 30 μmol/L): did not induce cell death
percentage of cells in G0/G1 compared to vehicle control (PDGF-BB-induced VSMC): significantly higher percentage of cells in G0/G1
activity at 10 µM [1]: 30.8 ± 5.2%
IC50 [1]: 2.84 µM

Structure (SMILES): CCCCCCCCCCCCOC(=O)[C@@H](Cc1ccc(O)c(O)c1)OC(=O)/C=C/c1ccc(O)c(O)c1 [RADOD (11), rosmarinic acid dodecyl ester]
cell death (LDH release) (VSMC; 30 μmol/L): comparable to that of the positive control, digitonin
VSMC proliferation ([1]; 1 μmol/L (data not shown)): unaffected
VSMC proliferation ([1]; 3 μmol/L (data not shown)): completely abrogated
activity at 10 µM [1]: 5.4 ± 8.1%

Structure (SMILES): CCOC(=O)[C@@H](Cc1ccc(O)c(O)c1)OC(=O)/C=C/c1ccc(O)c(O)c1 [RAET (8), rosmarinic acid ethyl ester]
intracellular concentration as share of applied concentration (cultured VSMC): about 20%
intracellular content normalized to protein (cultured VSMC; 10 μmol/L): around 2 pmol per µg of protein
cell death (LDH release) (VSMC; up to 30 μmol/L): did not induce cell death
activity at 10 µM [1]: 32.8 ± 8.1%
IC50 [1]: 3.37 µM

Structure (SMILES): COC(=O)[C@@H](Cc1ccc(O)c(O)c1)OC(=O)C=Cc1ccc(O)c(O)c1 [RAME (7), rosmarinic acid methyl ester]
intracellular concentration as share of applied concentration (cultured VSMC): about 20%
intracellular content normalized to protein (cultured VSMC; 10 μmol/L): around 2 pmol per µg of protein
cell death (LDH release) (VSMC; up to 30 μmol/L): did not induce cell death
activity of CDK4 (CDK4): affected only at much higher concentrations
IC50 (CDK2): 11.4 µM
activity at 10 µM [1]: 41.5 ± 10.9%
IC50 [1]: 7.9 µM

Structure (SMILES): CCCCCCCCOC(=O)[C@@H](Cc1ccc(O)c(O)c1)OC(=O)/C=C/c1ccc(O)c(O)c1 [RAOCT (10), rosmarinic acid octyl ester]
concentration within VSMC (cultured VSMC; 10 μmol/L, 16.5 h time point): remained relatively high
intracellularly accumulated concentration (cultured VSMC): about 6 μmol/L
intracellular level relative to those of RAME and RAET (cultured VSMC): ~3 fold and ~4 fold
cell death (LDH release) (VSMC; 30 μmol/L): marked but not significant increase in LDH production
LDH release (VSMC; 3 and 10 μmol/L): distinct LDH release, which however did not reach significance
percentage of cells in G0/G1 compared to vehicle control (PDGF-BB-induced VSMC): significantly higher percentage of cells in G0/G1
activity at 10 µM [1]: 33.8 ± 14.7%
IC50 [1]: 2.22 µM
